The test system of assay [1] is HL-60 disseminated xenograft. The experiment in a line: HL-60 disseminated xenograft model, survival. In kind it is in vivo, female mice CB-17 SCID. Conditions: MLN4924 180 mg/kg and/or azacitidine 10 mg/kg s.c. on days 22, 25, 29, 32, 36, 39; for Mean survival time: Vehicle 48.1. The protocol: Test subjects. […] On day 20 post-inoculation, mice were randomized into groups of 10. Starting on day 22, mice were dosed subcutaneously with vehicle, 180 mg/kg MLN4924, 10 mg/kg azacitidine, or the combination of 180 mg/kg MLN4924 and 10 mg/kg azacitidine, using the same twice-weekly schedule as described in the subcutaneous xenograft experiments (dosing on days 22, 25, 29, 32, 36, 39). The mice were monitored at least twice weekly for body weight loss and signs of disease, including paresis or paralysis of hind limbs and emergence of palpable and internal solid tumors. The day on which an animal died or was sacrificed due to disease burden was recorded.
To determine synergy in the survival times, the mean survival times and corresponding standard errors were computed for each treatment group.

Assay [2] deals with HL60 subcutaneous xenograft tumors. The experiment in a line: HL-60 subcutaneous xenograft model, tumor growth and synergy. The settings on record: s.c. Days 1, 4, 8, 11, 15 and 18; FIG. 2.
The test system of assay [3] is THP-1 subcutaneous xenograft tumors. The experiment in a line: THP-1 subcutaneous xenograft model, tumor growth and synergy. The settings on record: s.c. Days 1, 4, 8, 11, 15 and 18; FIG. 3.
Assay [4] relates to OCI-M2 subcutaneous xenograft tumors. As to the kind of experiment: OCI-M2 subcutaneous xenograft model, tumor growth and synergy. Conditions: s.c. Days 1, 4, 8, 11, 15 and 18; FIG. 4.
For assay [5], the system named is THP-1.
Text: Normalization. […] After normalization, the controls were discarded.

Results on three compounds are retold here after patent US8980850B2, “Administration of a NEDD8-activating enzyme inhibitor and hypomethylating agent” (Millennium Pharmaceuticals, Inc., priority 2011, dated 2015).

Turning to `Nc1ncn([C@@H]2O[C@H](CO)[C@@H](O)[C@H]2O)c(=O)n1` [azacitidine, 4-amino-1-β-D-ribofuranosyl-s-triazin-2(1H)-one], in assay [1], the “extension of mean survival time compared to the control group” value is 21.1 days. Further, the Mean survival time in assay [1] was 69.2 days. Besides, the “effect on tumor growth” value in assay [2] is “marginal effect on tumor growth”; in assay [3], “marginal effect on tumor growth”; in assay [4] it was “inhibited tumor growth”.
With `NS(=O)(=O)OC[C@@H]1C[C@@H](n2ccc3c(N[C@H]4CCc5ccccc54)ncnc32)C[C@@H]1O` [MLN4924, ((1S,2S,4R)-4-(4-((1S)-2,3-dihydro-1H-inden-1-ylamino)-7H-pyrrolo[2,3-d]-pyrimidin-7-yl)-2-hydroxycyclopentyl)methyl sulfamate], the “extension of mean survival time compared to the control group” value in assay [1] is 8.4 days. Further, the Mean survival time in assay [1] came to 56.5 days. In addition, the entries for the “effect on tumor growth” value in assay [2], in assay [3] and in assay [4] were “marginal effect on tumor growth”, “inhibited tumor growth” and “inhibited tumor growth”, respectively.
For `Nc1ncn([C@H]2C[C@H](O)[C@@H](CO)O2)c(=O)n1` [decitabine, 4-amino-1-(2-deoxy-β-D-erythropentofuranosyl)-1,3,5-triazin-2(1H)-one], the single agent activity entry in assay [5] is reported as “lack of single agent activity”.
